Laboratory results published in patent US10544130B2, “Metallo-beta-lactamase inhibitors” (priority 2015, dated 2020).
Structures can show the parent of a compound that is named as a salt. Where two headings read alike, the source gives them in different places.

How the values were obtained:
[1] = system: Escherichia coli expressing NDM-1 (CLB30005, CLB30016); assay type: cell-based; details: with imipenem 1 μg/ml, 95% inhibition of bacterial growth
Outline: (§1)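 Growth read by absorbance after 22–24 h at 35 °C in CAMHB, with test compound alone or combined with 1 μg/ml imipenem. Inocula came from overnight 35 °C blood-agar colonies, set to a defined OD600 and diluted 1:100. Value is the inhibitor concentration giving synergy.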

[2] = system: Serratia marcescens expressing IMP-1 (CL5741); assay type: cell-based; details: with imipenem 1 μg/ml, 95% inhibition of bacterial growth
Outline: as §1

[3] = system: Pseudomonas aeruginosa PAO1 MB9798 (efflux+, IMP-1); details: ratio MITC95 PA 9798/MITC95 PA 9799; imipenem at 2 μg/mL
Outline: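 Isogenic PAO1 pair (efflux+ MB9798, efflux− MB9799, both IMP-1) tested by microbroth MIC with fixed imipenem and/or ceftazidime, usually at CLSI breakpoint, plus fixed class A/C inhibitor against AmpC. MBL inhibitor titrated; concentration restoring susceptibility recorded and fold difference between strains taken as efflux extent.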

Row | SMILES | Escherichia coli (NDM-1) MITC95 ([1]; CLB30016) [µM] | Serratia marcescens (IMP-1) MITC95 ([2]; CL5741) [µM] | Escherichia coli (NDM-1) MITC95 [1] [µM] | Serratia marcescens (IMP-1) MITC95 [2] [µM] | Efflux ratio [3]
1 | NCCN1CC[C@@H](NS(=O)(=O)c2ccc(-c3ccc(N)nc3)c(-c3nn[nH]n3)c2S(N)(=O)=O)C1 [Example 500, (R)—N1-(1-(2-aminoethyl)pyrrolidin-3-yl)-4-(6-aminopyridin-3-yl)-3-(2H-tetrazol-5-yl)benzene-1,2-disulfonamide] | 1.563 | 1.563 |  |  | 
2 | Nc1ccc(-c2ccc(S(=O)(=O)NC3CNC3)c(S(N)(=O)=O)c2-c2nn[nH]n2)cn1 [Example 493, 4-(6-aminopyridin-3-yl)-N1-(azetidin-3-yl)-3-(2H-tetrazol-5-yl)benzene-1,2-disulfonamide] |  |  | 0.3906 | 0.3906 | 
3 | CNc1nc2c(-c3ccc(S(=O)(=O)N[C@@H]4CCNC4)c(S(N)(=O)=O)c3-c3nn[nH]n3)cccc2[nH]1 [Example 280, (R)-4-(2-(methylamino)-1H-benzo[d]imidazol-4-yl)-N1-(pyrrolidin-3-yl)-3-(2H-tetrazol-5-yl)benzene-1,2-disulfonamide] |  |  | 0.7813 | 0.7813 | 0.50
4 | Nc1nc2c(-c3ccc(S(=O)(=O)NCC4(O)CNC4)c(S(N)(=O)=O)c3-c3nn[nH]n3)cccc2s1 [Example 387, 4-(2-amino-1,3-benzothiazol-4-yl)-N^1-[(3-hydroxyazetidin-3-yl)methyl]-3-(2H-tetrazol-5-yl)benzene-1,2-disulfonamide] |  |  | 1.563 | 1.563 | 
5 | C[N+](C)(C)CCCNS(=O)(=O)c1ccc(-c2cccc3sc(N)nc23)c(-c2nnn[nH]2)c1S(N)(=O)=O [Example 392, 3-({[4-(2-amino-1,3-benzothiazol-4-yl)-2-sulfamoyl-3-(1H-tetrazol-5-yl)phenyl]sulfonyl}amino)-N,N,N-trimethylpropan-1-amimum trifluoroacetate] |  |  | 3.125 | 3.125 | 
6 | C[N+]1(CCN)CC[C@H](NS(=O)(=O)c2ccc(-c3cccc4[nH]c(N)nc34)c(-c3nn[nH]n3)c2S(N)(=O)=O)C1 (stereo partly drawn) [Example 249, (3S)-3-{[4-(2-amino-1H-1,3-benzodiazol-4-yl)-2-sulfamoyl-3-(2H-1,2,3,4-tetrazol-5-yl)benzene]sulfonamido}-1-(2-aminoethyl)-1-methylpyrrolidin-1-ium methaneperoxoate] |  |  | 0.3906 | 1.563 | 
7 | NC[C@H](N)CNS(=O)(=O)c1ccc(-c2cnc(N)s2)c(-c2nn[nH]n2)c1S(N)(=O)=O [Example 372, (S)-4-(2-aminothiazol-5-yl)-N1-(2,3-diaminopropyl)-3-(2H-tetrazol-5-yl)benzene-1,2-disulfonamide] |  |  | 1.563 | 1.563 | 2.00
8 | NCc1nc2c(-c3ccc(S(=O)(=O)NC[C@@H]4CNCCN4)c(S(N)(=O)=O)c3-c3nn[nH]n3)cccc2[nH]1 [Example 311, (S)-4-(2-(aminomethyl)-1H-benzo[d]imidazol-4-yl)-N-(piperazin-2-ylmethyl)-3-(2H-tetrazol-5-yl)benzene-1,2-disulfonamide] |  |  | 1.563 | 1.563 | 
9 | NCCNS(=O)(=O)c1ccc(-c2cccc3ncccc23)c(-c2nn[nH]n2)c1S(N)(=O)=O [Example 360, N1-(2-aminoethyl)-4-(quinolin-5-yl)-3-(2H-tetrazol-5-yl)benzene-1,2-disulfonamide] |  |  | 1.563 | 1.563 | 
10 | C[C@H](N)Cc1nc2c(-c3ccc(S(N)(=O)=O)c(S(N)(=O)=O)c3-c3nn[nH]n3)cccc2[nH]1 [Example 442, (S)-4-(2-(2-aminopropyl)-1H-benzo[d]imidazol-4-yl)-3-(2H-tetrazol-5-yl)benzene-1,2-disulfonamide] |  |  | 1.563 | 1.563 | 
11 | NCc1sc(N)nc1-c1cccc(-c2ccc(S(=O)(=O)N[C@@H]3CCNC3)c(S(N)(=O)=O)c2-c2nnn[nH]2)c1 [Example 432, (R)-3′-(2-amino-5-(aminomethyl)thiazol-4-yl)-N^4-(pyrrolidin-3-yl)-2-(1H-tetrazol-5-yl)-[1,1′-biphenyl]-3,4-disulfonamide] |  |  | 0.7813 | 0.7813 | 
12 | NCCNS(=O)(=O)c1ccc(-c2cccc(NC(=O)[C@H](N)CO)c2)c(-c2nn[nH]n2)c1S(N)(=O)=O [Example 454, (R)-2-amino-N-(4′-(N-(2-aminoethyl)sulfamoyl)-3′-sulfamoyl-2′-(2H-tetrazol-5-yl)-[1,1′-biphenyl]-3-yl)-3-hydroxypropanamide] |  |  | 1.563 | 3.125 | 
13 | NS(=O)(=O)c1c(S(=O)(=O)N[C@@H]2CNC[C@@H]2O)ccc(-c2cccc3[nH]nnc23)c1-c1nn[nH]n1 [Example 412, 4-(1H-benzo[d][1,2,3]triazol-4-yl)-N^1-((3R,4S)-4-hydroxypyrrolidin-3-yl)-3-(2H-tetrazol-5-yl)benzene-1,2-disulfonamide] |  |  | 3.125 | 3.125 | 
14 | C[C@@H](CN)NS(=O)(=O)c1ccc(-c2ccnc(N)c2)c(-c2nn[nH]n2)c1S(N)(=O)=O [Example 398, (S)-N^1-(1-aminopropan-2-yl)-4-(2-aminopyridin-4-yl)-3-(2H-tetrazol-5-yl)benzene-1,2-disulfonamide] |  |  | 3.125 | 1.563 | 
15 | NCc1nc2cc(-c3ccc(S(=O)(=O)NC[C@H](O)CN)c(S(N)(=O)=O)c3-c3nn[nH]n3)ccc2s1 [Example 463, (R)—N1-(3-amino-2-hydroxypropyl)-4-(2-(aminomethyl)benzo[d]thiazol-5-yl)-3-(2H-tetrazol-5-yl)benzene-1,2-disulfonamide] |  |  | 0.7813 | 0.7813 | 
16 | CNc1nc2c(-c3ccc(S(=O)(=O)NCCN)c(S(N)(=O)=O)c3-c3nn[nH]n3)cccc2[nH]1 [Example 467, N1-(2-aminoethyl)-4-(2-(methylamino)-1H-benzo[d]imidazol-4-yl)-3-(2H-tetrazol-5-yl)benzene-1,2-disulfonamide] |  |  | 0.7813 | 0.7813 | 
17 | NS(=O)(=O)c1c(S(=O)(=O)N[C@@H]2CCNC2)ccc(-c2cccc(Nc3nc(CO)cs3)c2)c1-c1nn[nH]n1 [Example 470, (R)-3′-((4-(hydroxymethyl)thiazol-2-yl)amino)-N4-(pyrrolidin-3-yl)-2-(2H-tetrazol-5-yl)-[1,1′-biphenyl]-3,4-disulfonamide] |  |  | 0.7813 | 1.563 | 
18 | NCC(CN)NS(=O)(=O)c1ccc(-c2cccc3[nH]nnc23)c(-c2nn[nH]n2)c1S(N)(=O)=O [Example 403, 4-(1H-benzo [d][1,2,3]triazol-4-yl)-N^1-(1,3-diaminopropan-2-yl)-3-(2H-tetrazol-5-yl)benzene-1,2-disulfonamide] |  |  | 1.563 | 1.563 | 
